Results published in BindingDB's records for doi:10.1074/jbc.M110.178376 (University of Pavia, 2011).
Where a name gives a salt, the structure may show the parent alone.

Target: Beta-2-microglobulin (Homo sapiens, UniProt P61769)
Assay: Fluorescence Assay
Settings: pH 7.4; 37 °C
Source text: Inhibition of wild type beta-m fibrillogenesis tetracycline congeners and was follow by thioflavin fluorescence assay.

Chain of Beta-2-microglobulin (P61769 whole entry): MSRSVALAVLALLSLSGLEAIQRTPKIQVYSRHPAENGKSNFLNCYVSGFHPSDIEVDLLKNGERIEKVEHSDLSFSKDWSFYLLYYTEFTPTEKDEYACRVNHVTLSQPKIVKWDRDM

Row | Compound | IC50
1 | Cc1c2c(c(O)c3c(O)ccc(Cl)c13)C(=O)[C@]1(O)C(=O)C(C(N)=O)C(=O)[C@@H](N(C)C)[C@@H]1C2 (some centres not stated) [Anhydrochlortetracycline] | 136 µM
2 | C=C1c2cccc(O)c2C(=O)C2C(=O)[C@]3(O)C(=O)C(C(N)=O)C(=O)[C@@H](N(C)C)[C@@H]3[C@@H](O)[C@H]12 (stereo partly drawn) [(4S,4aR,5S,5aS,12aS)-4-(dimethylamino)-5,10,12a-trihydroxy-1,3,11,12-tetraketo-6-methylene-4a,5,5a,11a-tetrahydro-4H-tetracene-2-carboxamide;hydrochloride] | 69 µM
3 | CN(C)[C@H]1C(=O)C(C(N)=O)C(=O)[C@@]2(O)C(=O)C3C(=O)c4c(O)cccc4[C@@](C)(O)C3C(O)C12 (stereo partly drawn) [4-epi-oxytetracycline] | 49 µM
4 | C[C@H]1c2cccc(O)c2C(=O)C2C(=O)[C@]3(O)C(=O)C(C(N)=O)C(=O)[C@@H](N(C)C)[C@@H]3[C@@H](O)[C@@H]21 (some centres not stated) | 47 µM
5 | C=C1c2c(Cl)ccc(O)c2C(=O)C2C(=O)[C@]3(O)C(=O)C(C(N)=O)C(=O)[C@@H](N(C)C)[C@@H]3[C@@H](O)[C@H]12 (some centres not stated) [Meclocycline] | 98 µM
6 | CN(C)[C@@H]1C(=O)C(C(N)=O)C(=O)[C@@]2(O)C(=O)C3C(=O)c4c(O)cccc4[C@@](C)(O)[C@H]3[C@H](O)[C@@H]12 (stereo partly drawn) [(2E,4S,4aR,5S,5aR,6S,12aS)-2-[azanyl(oxidanyl)methylidene]-4-(dimethylamino)-6-methyl-5,6,10,11,12a-pentakis(oxidanyl)-4,4a,5,5a-tetrahydrotetracene-1,3,12-trione] | 63 µM
7 | CN(C)[C@@H]1C(=O)C(C(=O)NCN2CCCC2)C(=O)[C@@]2(O)C(=O)C3C(=O)c4c(O)cccc4[C@@](C)(O)[C@H]3C[C@@H]12 (some centres not stated) [Rolitetracycline] | 136 µM
